Source: PubChem BioAssay (NCI)
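Step 1: Grow cells in 96-well plates. Step 2: Expose to compound for 48 hours at 5 concentrations. Step 3: Interpolate endpoints linearly; if unreached, use highest concentration. GI50: concentration for 50% inhibition of growth. TGI denotes the concentration required for complete inhibition of growth.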

What was measured:
Test in all cases: inhibition of tumour cell growth, NCI panel, 48 h
UACC-62 melanoma = test system: UACC-62 melanoma
NCI-H23 lung = test system: NCI-H23 lung
SF-268 CNS = test system: SF-268 CNS
SW-620 colon = test system: SW-620 colon
786-0 renal = test system: 786-0 renal
MDA-MB-231 breast = test system: MDA-MB-231 breast
SN12C renal = test system: SN12C renal
A498 renal = test system: A498 renal
NCI/ADR-RES ovarian = test system: NCI/ADR-RES ovarian
A549 NSCLC = test system: A549 NSCLC
OVCAR-4 ovarian = test system: OVCAR-4 ovarian
EKVX NSCLC = test system: EKVX NSCLC
M14 melanoma = test system: M14 melanoma
CAKI-1 renal = test system: CAKI-1 renal
SK-MEL-5 melanoma = test system: SK-MEL-5 melanoma
SNB-75 CNS = test system: SNB-75 CNS
HL-60(TB) leukemia = test system: HL-60(TB) leukemia
KM12 colon = test system: KM12 colon
SK-OV-3 ovarian = test system: SK-OV-3 ovarian
NCI-H226 lung = test system: NCI-H226 lung
T-47D breast = test system: T-47D breast
BT-549 breast = test system: BT-549 breast
OVCAR-3 ovarian = test system: OVCAR-3 ovarian
HCT-15 colon = test system: HCT-15 colon
LOX IMVI melanoma = test system: LOX IMVI melanoma
NCI-H522 lung = test system: NCI-H522 lung
IGROV1 ovarian = test system: IGROV1 ovarian
RXF 393 renal = test system: RXF 393 renal
OVCAR-5 ovarian = test system: OVCAR-5 ovarian
SF-295 CNS = test system: SF-295 CNS
UO-31 renal = test system: UO-31 renal
MDA-MB-435 = test system: MDA-MB-435
RPMI-8226 leukemia = test system: RPMI-8226 leukemia
HT29 colon = test system: HT29 colon
UACC-257 melanoma = test system: UACC-257 melanoma
OVCAR-8 ovarian = test system: OVCAR-8 ovarian
MALME-3M melanoma = test system: MALME-3M melanoma
HCT-116 colon = test system: HCT-116 colon
U251 CNS = test system: U251 CNS
SK-MEL-28 melanoma = test system: SK-MEL-28 melanoma
ACHN renal = test system: ACHN renal
SNB-19 CNS = test system: SNB-19 CNS
DU-145 prostate = test system: DU-145 prostate
HCC-2998 colon = test system: HCC-2998 colon
HOP-62 NSCLC = test system: HOP-62 NSCLC
TK-10 renal = test system: TK-10 renal
PC-3 prostate = test system: PC-3 prostate
MOLT-4 leukemia = test system: MOLT-4 leukemia
SR leukemia = test system: SR leukemia
COLO 205 colon = test system: COLO 205 colon
SF-539 CNS = test system: SF-539 CNS
SK-MEL-2 melanoma = test system: SK-MEL-2 melanoma
K-562 leukemia = test system: K-562 leukemia
HOP-92 NSCLC = test system: HOP-92 NSCLC
NCI-H460 lung = test system: NCI-H460 lung

SMILES: COc1ccc2c(c1)cn1c3ccc(OC)cc3[nH]c(=O)c21
- GI50 (UACC-62 melanoma): < 0.0174 µM
- TGI (UACC-62 melanoma): 1.39 µM
- GI50 (NCI-H23 lung): < 0.0238 µM
- TGI (NCI-H23 lung): 0.934 µM
- GI50 (SF-268 CNS): < 0.0229 µM
- TGI (SF-268 CNS): 1.47 µM
- GI50 (SW-620 colon): < 0.0147 µM
- TGI (SW-620 colon): 1.36 µM
- GI50 (786-0 renal): < 0.0231 µM
- TGI (786-0 renal): 1.56 µM
- GI50 (MDA-MB-231 breast): < 0.0188 µM
- TGI (MDA-MB-231 breast): 0.27 µM
- GI50 (SN12C renal): < 0.0232 µM
- TGI (SN12C renal): 1.65 µM
- GI50 (A498 renal): < 0.0258 µM
- GI50 (NCI/ADR-RES ovarian): < 0.01 µM
- GI50 (A549 NSCLC): < 0.0205 µM
- TGI (A549 NSCLC): 1.33 µM
- GI50 (OVCAR-4 ovarian): 0.0382 µM
- TGI (OVCAR-4 ovarian): 4.92 µM
- GI50 (EKVX NSCLC): < 0.0256 µM
- TGI (EKVX NSCLC): 1.76 µM
- GI50 (M14 melanoma): 0.027 µM
- TGI (M14 melanoma): 1.4 µM
- GI50 (CAKI-1 renal): < 0.01 µM
- GI50 (SK-MEL-5 melanoma): < 0.019 µM
- TGI (SK-MEL-5 melanoma): 0.76 µM
- GI50 (SNB-75 CNS): 0.0203 µM
- TGI (SNB-75 CNS): 1.19 µM
- GI50 (HL-60(TB) leukemia): < 0.0113 µM
- TGI (HL-60(TB) leukemia): < 0.0219 µM
- GI50 (KM12 colon): < 0.0187 µM
- TGI (KM12 colon): 0.247 µM
- GI50 (SK-OV-3 ovarian): < 0.0192 µM
- TGI (SK-OV-3 ovarian): 4.48 µM
- GI50 (NCI-H226 lung): 0.059 µM
- TGI (NCI-H226 lung): 8.97 µM
- GI50 (T-47D breast): 1.04 µM
- TGI (T-47D breast): 2.61 µM
- GI50 (BT-549 breast): 0.0407 µM
- TGI (BT-549 breast): 1.17 µM
- GI50 (OVCAR-3 ovarian): < 0.0152 µM
- TGI (OVCAR-3 ovarian): < 0.024 µM
- GI50 (HCT-15 colon): < 0.0177 µM
- TGI (HCT-15 colon): 1.11 µM
- GI50 (LOX IMVI melanoma): < 0.0206 µM
- TGI (LOX IMVI melanoma): 1.78 µM
- GI50 (NCI-H522 lung): < 0.0134 µM
- TGI (NCI-H522 lung): 0.15 µM
- GI50 (IGROV1 ovarian): < 0.0155 µM
- TGI (IGROV1 ovarian): 0.813 µM
- GI50 (RXF 393 renal): 0.0257 µM
- TGI (RXF 393 renal): 1.79 µM
- GI50 (OVCAR-5 ovarian): < 0.0232 µM
- TGI (OVCAR-5 ovarian): 1.81 µM
- GI50 (SF-295 CNS): < 0.0169 µM
- GI50 (UO-31 renal): < 0.0169 µM
- TGI (UO-31 renal): 1.77 µM
- GI50 (MDA-MB-435): < 0.01 µM
- TGI (MDA-MB-435): 0.0116 µM
- GI50 (RPMI-8226 leukemia): 0.0253 µM
- TGI (RPMI-8226 leukemia): 0.0984 µM
- GI50 (HT29 colon): < 0.0155 µM
- TGI (HT29 colon): 0.281 µM
- GI50 (UACC-257 melanoma): 14.6 µM
- TGI (UACC-257 melanoma): 29.5 µM
- GI50 (OVCAR-8 ovarian): < 0.0214 µM
- TGI (OVCAR-8 ovarian): 1.46 µM
- TGI (MALME-3M melanoma): 2.75 µM
- GI50 (HCT-116 colon): < 0.0157 µM
- TGI (HCT-116 colon): 1.05 µM
- GI50 (U251 CNS): < 0.0172 µM
- TGI (U251 CNS): 1.25 µM
- GI50 (SK-MEL-28 melanoma): < 0.0285 µM
- TGI (SK-MEL-28 melanoma): 2.15 µM
- GI50 (ACHN renal): < 0.0226 µM
- TGI (ACHN renal): 1.69 µM
- GI50 (SNB-19 CNS): < 0.0405 µM
- TGI (SNB-19 CNS): 7.36 µM
- GI50 (DU-145 prostate): < 0.0217 µM
- GI50 (HCC-2998 colon): < 0.0188 µM
- TGI (HCC-2998 colon): 0.0679 µM
- GI50 (HOP-62 NSCLC): < 0.0252 µM
- TGI (HOP-62 NSCLC): 1.66 µM
- GI50 (TK-10 renal): 1.17 µM
- TGI (TK-10 renal): 2.44 µM
- GI50 (PC-3 prostate): < 0.0154 µM
- TGI (PC-3 prostate): 1.59 µM
- GI50 (MOLT-4 leukemia): < 0.0183 µM
- TGI (MOLT-4 leukemia): 1.04 µM
- GI50 (SR leukemia): < 0.01 µM
- TGI (SR leukemia): 1.1 µM
- GI50 (COLO 205 colon): < 0.0175 µM
- TGI (COLO 205 colon): 0.0294 µM
- GI50 (SF-539 CNS): < 0.0159 µM
- TGI (SF-539 CNS): < 0.028 µM
- GI50 (SK-MEL-2 melanoma): 0.0574 µM
- TGI (SK-MEL-2 melanoma): 1.66 µM

SMILES: CO[C@]12C=C/C(=C(/C(=O)OCc3cccnc3)C(=O)CCCCCCCC[C@]3(OC)C=C/C(=C(/C(=O)OCc4cccnc4)C(=O)CCCCCCCC1)O3)O2
- GI50 (A498 renal): 0.432 µM
- TGI (A498 renal): 1.72 µM
- GI50 (K-562 leukemia): 0.337 µM
- TGI (K-562 leukemia): 1.3 µM
- GI50 (SNB-75 CNS): 0.247 µM
- TGI (SNB-75 CNS): 1.2 µM
- GI50 (HL-60(TB) leukemia): 0.337 µM
- TGI (HL-60(TB) leukemia): 1.02 µM
- GI50 (KM12 colon): 0.207 µM
- TGI (KM12 colon): 0.429 µM
- GI50 (HOP-92 NSCLC): 0.262 µM
- TGI (HOP-92 NSCLC): 0.889 µM
- GI50 (OVCAR-3 ovarian): 0.312 µM
- TGI (OVCAR-3 ovarian): 0.917 µM
- GI50 (NCI-H522 lung): 0.225 µM
- TGI (NCI-H522 lung): 0.554 µM
- GI50 (NCI-H460 lung): 0.321 µM
- TGI (NCI-H460 lung): 1.02 µM
- GI50 (RPMI-8226 leukemia): 0.291 µM
- TGI (RPMI-8226 leukemia): 0.927 µM
- GI50 (DU-145 prostate): 0.375 µM
- TGI (DU-145 prostate): 1.27 µM
- GI50 (TK-10 renal): 0.583 µM
- TGI (TK-10 renal): 1.96 µM
